Holding throughout (type): in vivo, rat
Assay [1] concerns rats subjected to Li-pilo induced SE. Put plainly: Timm staining, mossy fiber sprouting in hippocampus (Example 1). How it is done:
At 2 months after the onset of spontaneous recurrent seizures, mossy fiber sprouting was examined on rats in the chronic period exposed to the test compound or DZP and in 3 saline-saline rats. Animals were deeply anaesthetized and perfused transcardially with saline followed by 100 ml of 1.15% (w/v) Na2S in 0.1 M phosphate buffer, and 100 ml of 4% (v/v) formaldehyde in 0.1 M phosphate buffer. Brains were removed from skull, post-fixed in 4% formaldehyde during 3-5 h and 40 μm sections were cut on a sliding vibratome and mounted on gelatin-coated slides.
The following day, sections were developed in the dark in a 26° C. solution of 50% (w/v) arabic gum (160 ml), sodium citrate buffer (30 ml), 5.7% (w/v) hydroquinone (80 ml) and 10% (w/v) silver nitrate (2.5 ml) during 40-45 min. The sections were then rinsed with tap water at 40° C. during at least 45 min, rinsed rapidly with distilled water and allowed to dry. They were dehydrated in ethanol and coverslipped.
Mossy fiber sprouting was evaluated according to criteria previously described in dorsal hippocampus (Cavazos et al., 1991, J Neurosci 11:2795-2803), which are follows: O— no granules between the tips and crest of the DG; 1—sparse granules in the supragranular region in a patchy distribution between the tips and crest of DG; 2—more numerous granules in a continuous distribution between the tips and crest of DG; 3—prominent granules in a continuous pattern between tips and crest, with occasional patches of confluent granules between tips and crest; 4—prominent granules that form a confluent dense laminar band between tips and crest and 5—confluent dense laminar band of granules that extends into the inner molecular layer.

For assay [2] the test system is unchanged. Put plainly: Latency to and frequency of spontaneous recurrent seizures (SRS), lithium-pilocarpine model (Example 1). How it is done:
(§1) All rats received lithium chloride (3 meq/kg, i.p., Sigma, St Louis, Mo., U.S.A.); about 20 h later, animals were placed into plexiglas boxes, in order to record baseline cortical EEG. Methylscopolamine bromide (1 mg/kg, s.c., Sigma) was administered to limit the peripheral effects of the convulsant. SE was induced by injecting pilocarpine hydrochloride (25 mg/kg, s.c., Sigma) 30 min after methyl-scopolamine. The bilateral EEG cortical activity was recorded during the whole duration of SE and behavioral changes were noted.
(§2) The effects of increasing doses of the test compound were studied on 3 groups of rats. The animals of the first group received 10 mg/kg of the test compound, i.p., 1 h after the onset of SE (pilo-TC10) while the animals of groups 2 and 3 received 30 and 60 mg/kg of the test compound (pilo-TC30 and pilo-TC60), respectively.
(§3) Another group was injected with 2 mg/kg diazepam (DZP, i.m.) at 1 h after the onset of SE. This is a standard treatment to improve animals survival after SE (pilo-DZP). The control group received saline instead of pilocarpine and the test compound (saline-saline). The pilo-test compound rats surviving SE were then injected about 10 h after the first test compound injection with a second i.p. injection of the same dose of the test compound and were maintained under a twice daily treatment with the test compound for 6 additional days. Pilo-DZP received a second injection of 1 mg/kg DZP on the day of SE at about 10 h after the first one. Thereafter, Pilo-DZP and saline-saline rats received twice daily an equivalent volume of saline.
The effects of the test compound on the EEG and on the latency to occurrence of SRS were investigated by daily video recording of the animals for 10 h per day and the recording of the electrographic activity twice a week for 8 h.
To calculate the frequency of SRS in pilocarpine-exposed rats, the seizure severity and distinguished stage III (clonic seizures of facial muscles and anterior limbs) and stage IV-V seizures (rearing and falling) was considered. The frequency of stage III SRS per week in pilo-DZP and pilo-test compound rats was variable amongst the groups. It was low, constant in the pilo-DZP and pilo-TC60 (with early SRS onset) groups during the first 3 weeks and had disappeared during the 4th week in the pilo-DZP group. […] The frequency of more severe stage IV-V SRS was highest during the first week in most groups, except pilo-TC30 and TC60 with late seizure onset where the SRS frequency was constant over the whole 4 weeks in TC30 group and over the first two weeks in the pilo-TC60 group with late SRS onset in which no stage IV-V seizures where no seizures recorded after the second week.

Assay [3] has the same test system. As to the kind of experiment: Mortality induced by lithium-pilocarpine status epilepticus (Example 1). How it is done: Male Wistar rats weighing 225-250 g, provided by Janvier Breeding Center (Le Genest-St-lste, France) were housed under controlled standard conditions (light/dark cycle, 7.00 a.m.-7.00 p.m. lights on), with food and water available ad libitum. All animal experimentation was performed in accordance with the rules of the European Communities Council Directive of Nov. 24, 1986 (86/609/EEC), and the French Department of Agriculture (License No 67-97). For electrode implantation, rats were anesthetized by an i.p. injection of 2.5 mg/kg diazepam (DZP, Valium, Roche, France) and […] ketamine chlorhydrate (Imalgene 1000, Rhone Merrieux, France). Four single-contact recording electrodes were placed on the skull, over the parietal cortex, two on each side.
as §1, §2, §3
The difference was statistically significant (p<0.01).

Take `CN1C(=O)CN=C(c2ccccc2)c2cc(Cl)ccc21` [DZP, diazepam, reference compound]: the “mean Timm score, upper blade of the dentate gyrus” value in assay [1] (pilo-DZP, n=9, score scale 0-5) is 2.8±0.8. Further, the “frequency of stage IV-V SRS” value in assay [2] (pilo-DZP, first week) stood at 11.3 SRS per week. In addition, the “latency to SRS” value in assay [2] (pilo-DZP, n=9) stood at 18.2 ± 6.9 days. In addition, the “degree of mortality during the first 48 h after SE” value in assay [3] (pilo-DZP, DZP 2 mg/kg i.m. 1 h after onset of SE, 5/22) came to 23%.

Regarding `NC(=O)OC[C@@H](O)c1ccccc1Cl` [Formula 7], the “mean Timm score, upper blade of the dentate gyrus” value is 1.5±0.6 in assay [1] (pilo-TC10, n=7, p=0.032 vs pilo-DZP); 2.6±1.0 in assay [1] (pilo-TC30, n=10); 1.8±0.6 in assay [1] (pilo-TC60 subgroup with early SRS occurrence, n=6); 1.2±0.6 in assay [1] (pilo-TC60 subgroup with late occurrence or absence of SRS, n=5, p=0.016 vs pilo-DZP); 1.5±0.7 in assay [1] (whole group of pilo-TC60 rats, n=11). Moreover, the “mean delay to becoming epileptic relative to the other groups of animals” value in assay [2] (TC 60 mg/kg, subgroup of animals with delayed SRS) is reported as “about 9 fold”. The “rats in which occurrence of spontaneous seizures was delayed” value in assay [2] (TC 60 mg/kg, 4 out of 11) is on record as 36%. For the same molecule, the “frequency of stage IV-V SRS” value in assay [2] (TC10, TC30 and TC60 (with early SRS onset) groups, first week, significantly reduced vs pilo-DZP) is on record as 2.3-6.1 SRS per week; in assay [2] (pilo-TC60 group with early SRS onset, weeks 2-4, significantly reduced vs pilo-DZP), 0.6-0.9 seizure per week. Further, the absence of epilepsy result in assay [2] (TC60 (60 mg/kg)) is listed as “one rat did not become epileptic in a delay of 9 months post-SE”. Also, the “latency to SRS” value was 17.6 ± 8.7 days in assay [2] (TC60 (60 mg/kg), subgroup with latency similar to other groups, n=7); 149.8 ± 36.0 days in assay [2] (TC60 (60 mg/kg), subgroup with much longer delay, mean, n=4); 15.4 ± 5.1 days in assay [2] (pilo-TC10 (10 mg/kg, 7-day treatment), n=7); 18.9 ± 9.0 days in assay [2] (pilo-TC30 (30 mg/kg, 7-day treatment), n=10). The “frequency of stage III SRS” value in assay [2] (pilo-TC10, weeks 3 and 4) is given as “significantly increased over pilo-DZP values”. Further, the “degree of mortality during the first 48 h after SE” value in assay [3] (pilo-TC10, TC 10 mg/kg i.p. 1 h after onset of SE, 6/23) was determined as 26%; in assay [3] (pilo-TC30, TC 30 mg/kg i.p. 1 h after onset of SE, 5/25), 20%; in assay [3] (pilo-TC60, TC 60 mg/kg i.p. 1 h after onset of SE, 1/23, p<0.01) it was 4%.

Values taken from patent US20090137652A1, “METHODS FOR NEUROPROTECTION” (priority 2005, published 2009).
